Values of other authors as cited in publication PMC11676667, “Pharmacokinetics of Oral Cannabinoid Δ8-Tetrahydrocannabivarin and Its Main Metabolites in Healthy Participants” (Pharmaceuticals, 2024).
Like-named read-outs stand apart in the source and are kept apart here.

Experiments:
[1] = oral MCT oil formulation, healthy participants; cited from earlier work
CB1 receptor = conditions: in vitro, cited from earlier work
[2] = oral cannabis brownie; cited from earlier work

CCCc1cc(O)c2c(c1)OC(C)(C)[C@@H]1CC=C(C)C[C@@H]21 [Δ8-THCV, Δ8-tetrahydrocannabivarin]
safety and tolerability [1]: safe and well tolerated

CCCc1cc(O)c2c(c1)OC(C)(C)[C@@H]1CCC(C)=C[C@@H]21 [Δ9-THCV, Δ9-tetrahydrocannabivarin]
CB1 receptor antagonist potency relative to Δ8-THCV (CB1 receptor; at low doses): approximately two times more potent
CB1 receptor antagonist potency relative to Δ8-THCV (CB1 receptor): two-fold more potent

CCCc1cc(O)c2c(c1)OC(C)(C)[C@@H]1CCC(C(=O)O)=C[C@@H]21 [Δ9-THCV-COOH, 11-nor-9-carboxy-Δ9-THCV]
Tmax [2]: 3 h
